Test results as given in US20110124574A1, “RESTORATION OF ESTROGEN RECEPTOR-(ALPHA) ACTIVITY” (priority 2008, published 2011).
Where no end group is shown, it is not given here. The star is where a group is joined. For = O=C*

B1: recombinant Wnt-5a: recombinant Wnt-5a protein (R&D Systems) (protein, UniProt P41221 62-380, looked up)
Protein Wnt-5a: IIGAQPLCSQLAGLSQGQKKLCHLYQDHMQYIGEGAKTGIKECQYQFRHRRWNCSTVDNTSVFGRVMQIGSRETAFTYAVSAAGVVNAMSRACREGELSTCGCSRAARPKDLPRDWLWGGCGDNIDYGYRFAKEFVDARERERIHAKGSYESARILMNLHNNEAGRRTVYNLADVACKCHGVSGSCSLKTCWLQLADFRKVGDALKEKYDSAAAMRLNSRGKLVQVNSRFNSPTTQDLVYIDPSPDYCVRNESTGSLGTQGRLCNKTSEGMDGCELMCCGRGYDQFKTVQTERCHCKFHWCCYVKCKKCTEIVDQFVCK

Key:
Format in all cases: cell-based, human
[1] = test system: ERα; experiment: ERα protein expression by Western blot in stimulated MDA-MB-468 cells; settings: stimulation for 24 and 48 hours
Experimental: Breast cancer cells were grown in 6 well plates, and stimulated with recombinant Wnt-5a protein (rW5a), the Wnt-5a derived Foxy-5 peptide (F5), recombinant Wnt-3a protein (rW3a), or a formylated random hexapeptide (Rdm) for 24 or 48 h. Following treatment cells were lysed and subjected to SDS-PAGE, transferred to nitrocellulose membranes and blotted for ERα expression. A: MDA-MB-231 cells stimulated with recombinant Wnt-5a, Foxy-5, Wnt-3a, Rdm. B: MDA-MB-468 cells stimulated with recombinant Wnt-5a or Foxy-5. C: 4T1 cells stimulated with recombinant Wnt-5a or Foxy-5. Positive controls (Pos) were included in order to confirm the correct band size for ERα. Two different positive controls were used: T47D cell lysates known to express ERα and MDA-MB-231 cells transiently transfected with a full length ERα plasmid, resulting in extremely high ERα expression (top row, right panel, third row, right panel). […]
(§1) Cells were lysed in Triton lysis buffer (50 mM Tris (pH7.5), 1% Triton x-100, 140 mM NaCl, 0.5 mM EDTA, 0.5 MgCl2, 10 mM NaF) with the addition of fresh leupeptin (1 μg/ml), Pefabloc (2 mM), aprotinin (20 μg/ml) and Na3VO4 (4 mM). […] Scanning and densitometry was performed using a Bio-Rad (Hercules Calif.) GS-800 densitometer with Quantity One software. […]

[2] = test system: MDA-MB-231 cells; experiment: MTT proliferation assay; settings: for growth inhibition (MTT) after tamoxifen: MDA-MB-231, stimulation 24 or 48 hours then tamoxifen 5 μM final 20 hours, compared with tamoxifen alone; for effect on breast cancer cell proliferation alone (MTT): without tamoxifen
Experimental: MDA-MB-231 cells were grown in 6 well plates and stimulated with recombinant Wnt-5a protein (rW5a) or the Wnt-5a derived Foxy-5 peptide (F5), for 24 or 48 h. Cells were treated with tamoxifen for the final 20 h and their apoptotic responses were measured via different methods. […] Arrows highlight apoptotic cells. Bars represent […]. B: Following treatment with rW5a, F5 and tamoxifen, or tamoxifen alone, cells were lysed and subjected to SDS-PAGE, transferred to nitrocellulose membranes and blotted for cleaved caspase 3. C: Treated cells were assessed for their relative caspase 3 activity using fluorometric spectrophotometry. The graph represents 6 separate experiments. * P<0.01, ** P<0.001. D: MTT assays were also performed on MDA-MB-231 cells treated with rWnt-5a, F5 and tamoxifen, or tamoxifen alone (MDA-MB-231 and MCF-7 cells) to assess cell growth inhibition. The graph represents the average of 6 separate experiments, with standard deviation represented by error bars. ** P<0.01, *** P<0.001.
Cell proliferation was measured via MTT assay (Vybrant) following manufacturers instructions. Briefly, MDA-MB-231 and MCF-7 cells were grown in 96 well plates, then either left unstimulated, or stimulated with rWnt-5a (0.6 μg/ml) or Foxy-5 peptide (100 μM) for 24 or 48 hours. Cells were then treated with 5 μM tamoxifen (Sigma) for the final 20 hours. All cells were then labeled with MTT (3-(4,5-dimethylthiazol-2-yl)-2,5-diphenyltetrazolium bromide), incubated at 37° C. for 4 hours and absorbance measured on a Biorad 680 microplate reader (Biorad). The raw absorbance was measured in 9 replicates at 570 nm, and read outs averaged and adjusted accordingly. The experiment was performed 6 times, and results averaged.

[3] = test system: Phospho-ERα (Ser 118); experiment: Phospho-ERα (Ser 118) Western blot in MDA-MB-231 cells; settings: stimulated lysates
Experimental: MDA-MB-231 cells were grown in 6 well plates and stimulated with recombinant Wnt-5a protein (rW5a) or the Wnt-5a derived Foxy-5 peptide (F5), for 24 or 48 h. A: Following treatment, cells were lysed and subjected to SDS-PAGE, transferred to nitrocellulose membranes and blotted for phospho-ERα expression. The positive control (Pos) represents cell lysates from T47D cells expressing ERα B and C: RNA was also extracted from stimulated cells and samples tested for progesterone receptor (PR) (B) and pS2 (C) mRNA using semi-nested RT-PCR. The positive control (Pos) is RNA extracted from T47D cells that express ERα. The negative control represents a water control. PCR results are representative of three separate experiments.
as §1, with “mM). Lysates were incubated on ice for 15 minutes, then pre-cleared by centrifugation for 10 minutes at 8000 g. Cell lysates were separated according to size on 8-12% SDS-polyacrylamide gels and subsequently electrically transferred to PVDF or nitrocellulose membranes.” for “mM).”

Molecule | ERα levels [1] | growth inhibition (MTT) after tamoxifen [2] | effect on breast cancer cell proliferation alone (MTT) [2] | Phosphorylated ERα (serine 118) [3]
formyl-MDGCEL (For-MDGCEL; listed as Homo sapiens) [Foxy-5] | upregulated | statistically significant growth inhibition | Neither rWnt-5a nor Foxy-5 had an effect | detected
B1 | upregulated | statistically significant growth inhibition | Neither rWnt-5a nor Foxy-5 had an effect | detected
